This is an account of results in ChEMBL document CHEMBL3352261, “Discovery of inhibitors of the mitotic kinase TTK based on N-(3-(3-sulfamoylphenyl)-1H-indazol-5-yl)-acetamides and carboxamides” (Bioorg Med Chem, 2014).

Molecules are shown by their SMILES. ≈ marks a conversion by molar mass, not a printed value.

Data set [1] concerns the target T1, Dual specificity protein kinase TTK (Homo sapiens, UniProt P33981).
T1 sequence (P33981 whole entry): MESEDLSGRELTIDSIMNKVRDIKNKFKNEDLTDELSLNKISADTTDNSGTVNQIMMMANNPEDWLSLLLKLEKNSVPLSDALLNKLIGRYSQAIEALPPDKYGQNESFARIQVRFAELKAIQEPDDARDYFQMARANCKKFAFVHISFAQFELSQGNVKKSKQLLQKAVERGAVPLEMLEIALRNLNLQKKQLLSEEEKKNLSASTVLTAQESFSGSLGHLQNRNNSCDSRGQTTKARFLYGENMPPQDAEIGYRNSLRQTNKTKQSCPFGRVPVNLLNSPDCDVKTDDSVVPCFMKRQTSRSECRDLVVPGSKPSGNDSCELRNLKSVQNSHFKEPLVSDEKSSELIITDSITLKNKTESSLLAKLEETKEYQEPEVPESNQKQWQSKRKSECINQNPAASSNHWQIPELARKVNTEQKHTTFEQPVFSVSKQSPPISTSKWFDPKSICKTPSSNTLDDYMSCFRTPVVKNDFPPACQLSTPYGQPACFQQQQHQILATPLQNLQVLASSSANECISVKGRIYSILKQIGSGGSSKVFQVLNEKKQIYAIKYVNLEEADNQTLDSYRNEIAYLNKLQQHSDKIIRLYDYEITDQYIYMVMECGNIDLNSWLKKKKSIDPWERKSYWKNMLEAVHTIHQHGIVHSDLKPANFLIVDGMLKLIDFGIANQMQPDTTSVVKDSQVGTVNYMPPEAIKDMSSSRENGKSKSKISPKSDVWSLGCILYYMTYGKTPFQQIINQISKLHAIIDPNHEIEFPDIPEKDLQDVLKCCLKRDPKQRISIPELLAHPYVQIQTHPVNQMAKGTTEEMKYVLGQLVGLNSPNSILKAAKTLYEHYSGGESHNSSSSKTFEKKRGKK
Description: Inhibition of SUMO-tagged human TTK (1-275 residues) compound pre-incubated for 15 mins prior ATP addition by MBP-based assay.

The nature of data set [2]: Solubility of the compound at pH 7.4. Format: physicochemical. The settings on record: buffer.
The nature of data set [3]: Growth inhibition of human HCT116 cells after 5 days by SRB assay. The note with it: HCT-116, 120 h. Format: functional.
In data set [4] the target is Serine/threonine-protein kinase Chk2 (Homo sapiens, UniProt O96017). As to the kind of experiment: Inhibition of CHK2 (unknown origin) by FRET-based homogenous assay.
Sequence of Serine/threonine-protein kinase Chk2 (O96017 whole entry): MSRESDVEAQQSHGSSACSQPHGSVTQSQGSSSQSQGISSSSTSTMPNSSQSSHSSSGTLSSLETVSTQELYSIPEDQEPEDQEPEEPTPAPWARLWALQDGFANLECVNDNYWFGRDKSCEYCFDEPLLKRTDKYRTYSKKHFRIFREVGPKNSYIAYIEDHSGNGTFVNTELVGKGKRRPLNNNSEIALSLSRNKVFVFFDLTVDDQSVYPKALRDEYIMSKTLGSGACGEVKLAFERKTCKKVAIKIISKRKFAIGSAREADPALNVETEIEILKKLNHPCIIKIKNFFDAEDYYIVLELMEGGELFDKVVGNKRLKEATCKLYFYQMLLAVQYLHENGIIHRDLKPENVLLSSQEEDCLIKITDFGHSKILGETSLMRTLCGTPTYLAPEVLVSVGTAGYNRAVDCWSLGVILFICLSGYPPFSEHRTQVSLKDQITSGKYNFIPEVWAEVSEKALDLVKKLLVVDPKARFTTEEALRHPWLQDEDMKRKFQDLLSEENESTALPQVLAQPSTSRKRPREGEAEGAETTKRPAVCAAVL
Data set [5] has as its target T1, Dual specificity protein kinase TTK. As to the kind of experiment: Inhibition of TTK in human HCT116 cells assessed as phosphorylation of histone H3 at Ser10 residue after 4 hrs by immunoassay. The format is cell-based, HCT-116.
The next data set has as its target Aurora kinase B (Homo sapiens, UniProt Q96GD4). As to the kind of experiment: Inhibition of Aurora B (unknown origin) by FRET-based homogenous assay.
Data set [6] concerns the target T2, Cytochrome P450 3A4 (Homo sapiens, UniProt P08684). As to the kind of experiment: Inhibition of CYP3A4 in supersomes (unknown origin) using Dibenzylfluorescein as substrate after 10 mins. Format: ADME.
For the next data set, the target named is Cytochrome P450 2C9 (Homo sapiens, UniProt P11712). As to the kind of experiment: Inhibition of CYP2C9 in supersomes (unknown origin) using MFC as substrate after 30 mins. The format is ADME.
Sequence of Cytochrome P450 2C9 (P11712 whole entry): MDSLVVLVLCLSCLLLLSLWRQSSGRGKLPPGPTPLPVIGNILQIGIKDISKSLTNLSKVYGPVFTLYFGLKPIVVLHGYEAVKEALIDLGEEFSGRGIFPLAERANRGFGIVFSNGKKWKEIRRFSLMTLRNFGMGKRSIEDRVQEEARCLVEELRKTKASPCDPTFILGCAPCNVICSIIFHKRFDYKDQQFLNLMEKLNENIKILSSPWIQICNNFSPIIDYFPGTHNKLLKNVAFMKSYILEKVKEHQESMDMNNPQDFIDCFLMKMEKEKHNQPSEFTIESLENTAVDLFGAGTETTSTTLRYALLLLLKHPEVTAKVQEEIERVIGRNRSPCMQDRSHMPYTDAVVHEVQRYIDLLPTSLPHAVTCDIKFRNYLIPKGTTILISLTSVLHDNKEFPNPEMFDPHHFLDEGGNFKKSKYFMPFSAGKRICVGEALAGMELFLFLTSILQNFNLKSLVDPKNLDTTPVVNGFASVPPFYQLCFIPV
The target in data set [7] is T2, Cytochrome P450 3A4. As to the kind of experiment: Inhibition of CYP3A4 in supersomes (unknown origin) using 7-benzyloxy-4-trifluoromethylcoumarin as substrate after 30 mins. Format: ADME.
Another data set concerns MDA-MB-468. As to the kind of experiment: Growth inhibition of human MDA-MB-468 cells after 5 days by SRB assay. The note with it: MDA-MB-468, 120 h. The format is functional.
The next data set relates to A549. As to the kind of experiment: Growth inhibition of human A549 cells after 5 days by SRB assay. The note with it: A549, 120 h. Format: functional.
The target in a further data set is T3, Cytochrome P450 1A2 (Homo sapiens, UniProt P05177).
T3 sequence (P05177 whole entry): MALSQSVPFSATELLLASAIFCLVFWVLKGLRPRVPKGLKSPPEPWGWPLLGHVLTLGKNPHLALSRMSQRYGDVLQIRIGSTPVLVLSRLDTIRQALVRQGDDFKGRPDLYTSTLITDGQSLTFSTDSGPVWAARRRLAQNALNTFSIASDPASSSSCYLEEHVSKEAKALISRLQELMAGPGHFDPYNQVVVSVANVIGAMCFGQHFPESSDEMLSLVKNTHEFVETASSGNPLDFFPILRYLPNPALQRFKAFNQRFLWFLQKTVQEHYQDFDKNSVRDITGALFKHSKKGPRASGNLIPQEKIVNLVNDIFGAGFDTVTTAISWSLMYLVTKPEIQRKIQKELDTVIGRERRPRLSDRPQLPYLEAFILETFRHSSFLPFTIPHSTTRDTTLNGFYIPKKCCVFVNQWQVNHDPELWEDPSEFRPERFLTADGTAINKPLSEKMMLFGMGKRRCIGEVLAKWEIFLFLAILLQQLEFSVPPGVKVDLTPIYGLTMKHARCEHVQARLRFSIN
Description: Inhibition of CYP1A2 in supersomes (unknown origin) using CEC as substrate after 30 mins. The format is ADME.

The next data set has as its target Cytochrome P450 2C19 (Homo sapiens, UniProt P33261). As to the kind of experiment: Inhibition of CYP2C19 in supersomes (unknown origin) using MFC as substrate after 30 mins. The format is ADME.

T2 sequence (P08684 whole entry): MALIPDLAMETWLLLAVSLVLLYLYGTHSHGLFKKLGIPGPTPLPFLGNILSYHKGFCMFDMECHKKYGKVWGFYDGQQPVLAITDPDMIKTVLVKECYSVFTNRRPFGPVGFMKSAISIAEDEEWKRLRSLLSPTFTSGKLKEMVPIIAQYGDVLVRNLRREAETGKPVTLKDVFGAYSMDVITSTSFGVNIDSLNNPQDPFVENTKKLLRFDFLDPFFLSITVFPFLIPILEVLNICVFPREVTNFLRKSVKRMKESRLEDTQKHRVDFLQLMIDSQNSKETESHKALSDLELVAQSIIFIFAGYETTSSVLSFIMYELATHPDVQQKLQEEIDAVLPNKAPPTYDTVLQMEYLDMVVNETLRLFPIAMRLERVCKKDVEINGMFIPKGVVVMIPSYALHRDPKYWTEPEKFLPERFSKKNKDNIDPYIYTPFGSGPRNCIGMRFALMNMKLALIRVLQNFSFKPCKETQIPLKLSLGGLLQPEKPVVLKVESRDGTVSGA
Sequence of Aurora kinase B (Q96GD4 whole entry): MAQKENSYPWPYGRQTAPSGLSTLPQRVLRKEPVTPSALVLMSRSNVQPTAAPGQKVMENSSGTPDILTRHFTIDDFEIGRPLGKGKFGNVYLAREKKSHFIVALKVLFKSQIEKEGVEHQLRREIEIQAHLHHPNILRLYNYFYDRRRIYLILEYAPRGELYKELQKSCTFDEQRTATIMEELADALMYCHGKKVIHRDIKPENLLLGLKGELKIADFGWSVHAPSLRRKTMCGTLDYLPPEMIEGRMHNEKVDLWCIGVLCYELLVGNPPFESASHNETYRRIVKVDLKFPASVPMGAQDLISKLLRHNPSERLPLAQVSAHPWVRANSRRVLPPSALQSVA
Sequence of Cytochrome P450 2C19 (P33261 whole entry): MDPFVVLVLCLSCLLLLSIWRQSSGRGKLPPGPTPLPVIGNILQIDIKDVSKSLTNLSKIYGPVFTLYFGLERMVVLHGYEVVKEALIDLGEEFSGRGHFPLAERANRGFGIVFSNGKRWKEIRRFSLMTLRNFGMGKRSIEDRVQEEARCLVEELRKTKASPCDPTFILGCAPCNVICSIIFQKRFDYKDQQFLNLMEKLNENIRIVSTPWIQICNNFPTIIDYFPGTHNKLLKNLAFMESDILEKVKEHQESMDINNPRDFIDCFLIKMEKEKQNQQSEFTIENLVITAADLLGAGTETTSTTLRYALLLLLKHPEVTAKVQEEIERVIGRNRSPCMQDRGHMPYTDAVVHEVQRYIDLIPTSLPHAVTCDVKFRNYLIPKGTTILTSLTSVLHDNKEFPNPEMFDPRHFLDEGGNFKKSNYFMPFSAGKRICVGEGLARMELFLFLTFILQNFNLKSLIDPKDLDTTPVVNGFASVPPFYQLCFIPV

For orientation: IC50 means the concentration that gives 50% inhibition. Low values mean higher potency, high ones lower potency. One may read the solubility as how much of the substance goes into solution per volume. A higher solubility goes with much dissolved substance. What is called GI50 is the concentration at which growth is held to half of that of the control. Low readings indicate more potent growth inhibition, high ones less potent growth inhibition. In general, EC50 refers to the concentration needed to bring the measured effect to its halfway point. On to `NS(=O)(=O)c1cccc(-c2n[nH]c3ccc(NC(=O)C(c4ccsc4)N4CCCC4)cc23)c1` (racemic), for which the 50% inhibitory concentration (IC50) is 0.0029 µM in [1]; 0.1 µM in [4]; 0.72 µM on Aurora kinase B; over 1 µM against Cytochrome P450 3A4 [6]; 0.9 µM on Cytochrome P450 2C9; 4 µM at Cytochrome P450 3A4 [7]. For the same compound, the IC50 is over 10 µM against Cytochrome P450 1A2 and 5.3 µM against Cytochrome P450 2C19. The compound also yielded a solubility in [2] of 9 µg/mL (≈ 18.7 µM). Further, the concentration for 50% growth inhibition (GI50) worked out at 0.07 µM in [3], 0.09 µM in the data set on MDA-MB-468 and 0.09 µM with A549. The EC50 in [5] was 0.42 µM.
On to `CCc1ccccc1C(C(=O)Nc1ccc2[nH]nc(-c3cccc(S(N)(=O)=O)c3)c2c1)N(C)C` (racemic), for which the IC50 amounted to 0.0036 µM in data set [1]; 0.42 µM in data set [4]; 0.48 µM at Aurora kinase B; 2.9 µM at Cytochrome P450 3A4 [6]; 2.5 µM against Cytochrome P450 2C9; 0.7 µM on Cytochrome P450 3A4 [7]. Also, the half-maximal inhibitory concentration (IC50) is over 10 µM at Cytochrome P450 1A2 and 2.3 µM against Cytochrome P450 2C19. The compound further gave a solubility in data set [2] of 1.4 µg/mL (≈ 2.93 µM). The figures for the GI50 (in [3]; with MDA-MB-468; with A549) were 0.1 µM, 0.66 µM and 0.16 µM, respectively. The EC50 in data set [5] came to 0.52 µM.
